The values below are quoted from earlier work in patent US11090329B2, “Method and composition for treating gastro-esophageal disorders” (priority 2012, dated 2021).

The data set relates to esophagitis caused by chemo-radiotherapy. The settings on record: patients with advanced stage III non-small-cell lung cancer.

Consider `O=C(O[C@@H]1Cc2c(O)cc(O)cc2O[C@@H]1c1cc(O)c(O)c(O)c1)c1cc(O)c(O)c(O)c1` [EGCG, epigallocatechin gallate A], for which the “esophagitis caused by chemo-radiotherapy” value was “reduce esophagitis”.
